From patent US9936699B2, “Halogen-substituted compounds” (BAYER CROPSCIENCE AKTIENGESELLSCHAFT, priority 2014, dated 2018) come the findings set out here.

The test system of data set [1] is two-spotted spider mite (Tetranychus urticae). In words: Tetranychus urticae spray test; OP-resistant (bean plants). The class given is in vivo.
The test system of data set [2] is green peach aphid (Myzus persicae). In words: Myzus persicae spray test (pepper leaves). The class given is in vivo. As to conditions: 20 ppm, after 6 days.
In data set [3] the test system is adult engorged female ticks (Boophilus microplus). The experiment in a line: Boophilus microplus injection test (BOOPMI Inj). The class given is in vivo. As to conditions: 20 μg/animal, egg deposition after 7 days. As for the experimental part:
Boophilus microplus—Injectiontest (BOOPMI Inj)
(§1) Solvent: dimethyl sulfoxide
Five adult engorged female ticks (Boophilus microplus) are injected with 1 μl compound solution into the abdomen. The ticks are transferred into replica plates and incubated in a climate chamber.
(§2) After 7 days egg deposition of fertile eggs is monitored. Eggs where fertility is not visible are stored in a climate chamber till hatching after about 42 days. An efficacy of 100% means all eggs are infertile; 0% means all eggs are fertile.

Data set [4] concerns fall armyworm larvae (Spodoptera frugiperda). The experiment in a line: Spodoptera frugiperda spray test (maize leaf sections). The class given is in vivo. The text has this: Spodoptera frugiperda—Spray Test
(§3) Solvent: 78.0 parts by weight acetone
(§4) • 1.5 parts by weight dimethylformamide Emulsifier: alkylarylpolyglycol ether
Maize (Zea mays) leaf sections are sprayed with a preparation of the active ingredient of the desired concentration. Once dry, the leaf sections are infested with fall armyworm larvae (Spodoptera frugiperda).

Data set [5] deals with adult cat fleas (Ctenocephalides felis). The experiment in a line: Ctenocephalides felis in-vitro contact test, adult cat flea. The class given is in vivo. The conditions noted are these: 5 μg/cm^2 (=500 g/ha), after 48 hours. As for the experimental part:
Ctenocephalides felis—In-Vitro Contact Tests Adult Cat Flea
9 mg compound is solved in 1 ml acetone and diluted with acetone to the desired concentration. 250 μl of the test solution is filled in 25 ml glass test tubes and homogeneously distributed on the inner walls by rotation and tilting on a shaking device (2 h at 30 rpm). With a compound concentration of 900 ppm, an inner surface of 44.7 cm^2 and a homogeneous distribution, a dose of 5 μg/cm^2 is achieved.
After the solvent has evaporated, each test tube is filled with 5-10 adult cat fleas (Ctenocephalides felis), closed with a perforated lid and incubated in a lying position at room temperature and relative humidity. After 48 hours efficacy is determined. The fleas are patted on the ground of the tubes and are incubated on a heating plate at 45-50° C. for at most 5 minutes. Immotile or uncoordinated moving fleas, which are not able to escape the heat by climbing upwards, are marked as dead or moribund.
An efficacy of 100% means all fleas are dead or moribund; 0% means no fleas are dead or moribund.

Data set [6] in a line: logP determination by HPLC on reversed-phase column (C18), EEC Directive 79/831 Annex V.A8. The class given is physicochemical. As to conditions: reversed-phase C18, acetonitrile/water with formic acid.
Data set [7] deals with adult house flies (Musca domestica). The experiment in a line: Musca domestica test (MUSCDO). The class given is in vivo.
Excerpt: Musca domestica—Test (MUSCDO)
as §1
10 adult house flies (Musca domestica) are transferred into a container, containing a sponge soaked with a mixture of sugar solution and compound solution of the desired concentration.

For data set [8], the system named is two spotted spidermite (Tetranychus urticae). The experiment in a line: Tetranychus urticae spray test OP-resistant (French bean leaf disks). The class given is in vivo. As for the experimental part: Tetranychus urticae—Spray Test OP-Resistant
as §3, §4
French bean (Phaseolus vulgaris) leaf disks which are heavily infested with all stages of the two spotted spidermite (Tetranychus urticae) are sprayed with a preparation of the active ingredient of the desired concentration.
(§5) After 6 days mortality in % is determined.

Data set [9] concerns green peach aphid (Myzus persicae). The experiment in a line: Myzus persicae spray test (Chinese cabbage leaf disks). The class given is in vivo. As to conditions: Myzus persicae, foliar, 144 h, read-out: mortality in %. As for the experimental part: Myzus persicae—Spray Test
as §3, §4
Chinese cabbage (Brassica pekinensis) leaf disks infected with all instars of the green peach aphid (Myzus persicae), are sprayed with a preparation of the active ingredient of the desired concentration.
as §5

Data set [10] has as its system cattle ticks (Boophilus microplus) strane Parhurst, SP-resistant. In words: Boophilus microplus dip test (BOOPMI Dip). The class given is in vivo. The conditions noted are these: 100 ppm, egg deposition after 7 days.
Excerpt: Boophilus microplus—Diptest (BOOPMI Dip)
Test animal: cattle ticks (Boophilus microplus) strane Parhurst, SP-resistant
as §1
This compound solution is pipetted into tubes. 8-10 engorged, adult, female cattle ticks (Boophilus microplus) are placed in perforated tubes. These tubes are immersed in the aqueous compound solution until the ticks are completely moistened. After the liquid has drained off, the ticks are transferred to a filter paper in a plastic tray and stored in a climate chamber.
as §2

For data set [11], the system named is Tick nymphs (Amblyomma hebraeum). The experiment in a line: Amblyomma hebraeum test (AMBYHE). The class given is in vivo. As to conditions: Amblyomma hebraeum, 1008 h, read-out: mortality in %. As for the experimental part: Amblyomma hebraeum—Test (AMBYHE)
as §1
Tick nymphs (Amblyomma hebraeum) are placed in perforated plastic beakers and immersed in the aqueous compound solution for one minute. Ticks are transferred to a filter paper in a petridish and incubated in a climate chamber.

Data set [12] deals with adult unfed cat fleas (Ctenocephalides felis). The experiment in a line: Ctenocephalides felis oral test (CTECFE). The class given is in vivo. As to conditions: 48 h, read-out: mortality in %. As for the experimental part: Ctenocephalides felis—Oral Test (CTECFE)
as §1
Approximately 20 adult unfed cat fleas (Ctenocephalides felis) are placed in flea chambers. The blood chamber, sealed with parafilm on the bottom, are filled with cattle blood supplied with compound solution and placed on the gauze covered top of the flea chamber, so that the fleas are able to suck the blood. The blood chamber is heated to 37° C. whereas the flea chamber is kept at room temperature.

For data set [13], the system named is mustard beetle larvae (Phaedon cochleariae). In words: Phaedon cochleariae spray test (cabbage leaves). As to conditions: in Brassica oleracea, 168 h, read-out: mortality in %.
For data set [14] the test system is unchanged. In words: Phaedon cochleariae spray test (Chinese cabbage leaf disks). The class given is in vivo. The conditions noted are these: foliar, 168 h, read-out: mortality in %. The text has this:
Phaedon cochleariae—Spray Test
Solvent: 78.0 parts by weight of acetone
• 1.5 parts by weight of dimethylformamide Emulsifier: alkylarylpolyglycol ether
Chinese cabbage (Brassica pekinensis) leaf disks are sprayed with a preparation of the active ingredient of the desired concentration.

Data set [15] relates to larvae of the Australian sheep blowfly (Lucilia cuprina). In words: Lucilia cuprina test (LUCICU). The class given is in vivo. As to conditions: Lucilia cuprina, 48 h, read-out: mortality in %. As for the experimental part:
Lucilia cuprina—Test (LUCICU)
as §1
10 mg active compound are dissolved in 0.5 ml Dimethylsulfoxid. Serial dilutions are made to obtain the desired rates.
Approximately 20 […] instar larvae of the Australian sheep blowfly (Lucilia cuprina) are transferred into a test tube containing minced horse meat and compound solution of the desired concentration.

With `Cn1nc(C(F)(F)C(F)(F)F)c([S+](C)[O-])c1-n1cc(-c2ccc(Cl)c(C(=O)NC3CC3)c2)cn1` (stereo not shown) [Example I-06], the mortality in % came to 90% in data set [1] (20 ppm, after 7 days); 99% in data set [2]; 100% in data set [4] (100 g/ha, after 7 days); 100% in data set [7] (100 ppm, after 2 days); 90% in [8] (100 g/ha, after 6 days). Moreover, the “efficacy (infertile eggs)” value in data set [3] is listed as 100%. Besides, the “efficacy (fleas dead or moribund)” value in data set [5] is given as 100%. In addition, the logP in data set [6] is on record as 2.60.
For `CSc1c(C(F)(F)C(F)(F)F)nn(C)c1-n1cc(-c2ccc(Cl)c(C(=O)NC3(C#N)CC3)c2)cn1` [Example I-02, 2-chloro-N-(1-cyanocyclopropyl)-5-[2′-methyl-4′-(methylsulfanyl)-5′-(pentafluoroethyl)-2′H-1,3′-bipyrazol-4-yl]benzamide], the mortality at 100 g/ha came out at 100% in [9]; 100% in data set [4] (Spodoptera frugiperda, 168 h, read-out: mortality in %); 100% in data set [14]; 100% in data set [8] (Tetranychus urticae, foliar, 144 h, read-out: mortality in %). Moreover, the “efficacy (infertile eggs)” value in data set [10] and in data set [3] was 100% each time. For the same compound, the mortality at 4 ppm in data set [1] (Tetranychus urticae, 168 h, read-out: mortality in %) stood at 100%; in data set [13] it was 100%. The mortality at 100 ppm in data set [11] turned out to be 100%; in data set [12] it was 100%; in [7] (Musca domestica, 48 h, read-out: mortality in %) it was 90%; in [15], 100%. In [6], this compound gave a logP of 3.56. In [6] (reversed-phase C18 HPLC column), this compound came in with a chromatographic logP of 3.58.
